Data: article PMC5903475, “Food-Derived Hemorphins Cross Intestinal and Blood–Brain Barriers In Vitro” (Frontiers in Endocrinology, 2018)
Where a SMILES comes first, the peptide text is derived from it. Where no end group is shown, it is not given here.

How the values were obtained:
[1] = system: Caco-2/TC7 cell barrier (human intestinal barrier model); conditions: for Passage of the intact peptide across the Caco-2 monolayer / Time of first appearance of the intact peptide in the basal compartment: 5 mM apical; for Passage of the intact peptide across the Caco-2 monolayer: basal samples 5-120 min, MRM; for Intact peptide or fragments present in the apical compartment, intestinal barrier / Intact peptide or fragments present in the basal compartment, intestinal barrier: peptide applied apically at 5 mM, end of the 120 min passage test, LC-MS/MS
Method: For the experiment, they were seeded at the density of 60 × 10^3 cells cm^−2 into cell culture inserts in 6-well culture plates and grown for 21 days.
The day of the trans-intestinal transport test, growth media were removed, and cells were first rinsed with the transport medium, HBSS-Hepes buffer supplemented with CaCl2 (2.5 mM final) and MgCl2 (0.5 mM final) in the apical (1 mL) and basolateral chambers (2.5 mL), then pre-incubated for 30 min with the transport medium. All incubations were performed at 37°C, 10% CO2 atmosphere. To control the integrity of the Caco-2/TC7 cell barrier, the paracellular transport marker lucifer yellow (LY, 100 µM final) was applied apically into each well and its transport into the basolateral chamber was monitored by spectrofluorescence. Each hemorphin was diluted for a final concentration of 5 mM in transport medium-LY and applied to the apical chamber at t0. In parallel, control wells were incubated with transport medium-LY only and all conditions were tested in triplicate. At t5, 15, 30, and 60 min, 100 µL samples were collected in the basal chamber and replaced by the same volume of transport medium. At t120 min, all remaining media in basal and apical chambers were collected and all samples were stored at −80°C. The rate of LY transport was determined by fluorescence readings (ex 485/em 530 nm) at each time point on the spectrofluorometer Safas Xenius XC (Safas Monaco, Monaco, France) and calculating the apparent permeability coefficient (Papp) as follows: (ΔQ/Δt) × (Vb/(A × C0)), where ΔQ is the change in LY concentration in the basal chamber (μM); Δt is the transport duration (s); Vb is the volume in the basal chamber (mL); A is the surface area of the insert/transwell membrane (cm^2); and C0 is the initial concentration of LY applied to the apical chamber (μM).
LC-MS/MS analysis was performed on a UFLC-XR device (Shimadzu, Kyoto, Japan) coupled to a QTRAP® 5500 MS/MS hybrid system triple quadrupole/linear ion trap mass spectrometer (AB Sciex, Foster City, CA, USA) equipped with a Turbo VTM ion source. Instrument control, data acquisition, and processing were performed using Analyst 1.5.2 software. The reverse phase liquid chromatography separation was carried out on a Kromasil C18 column (100 × 2.1 mm, 3.5 µm) with guard cartridge from AIT-France (Houilles, France). The injection volume was 2 µL. Elution was performed at a flow rate of 200 µL min^−1 with water-formic acid 0.1% as eluent A and acetonitrile-formic acid 0.1% as eluent B. The injection duty cycle was 10 min, starting with a 1 min plateau with 25% B, followed by a linear gradient from 25 B to 60% B in 4 min, a 1 min plateau with 60% B, 1 min linear gradient from 60 to 25% B, and 3 min at 25% B to recondition the column. MS analysis was carried out in positive ionization mode. The ion source parameters were optimized and set as follows: ion spray voltage, 5,500 V; nebulizer gas (air) and curtain gas (nitrogen) flows, 50 and 25 psi, respectively; source temperature, 550°C with the auxiliary gas flow (air) set at 50 psi; declustering potential (DP), 100 V; and collision cell exit potential, 25 V. The mass spectrometer was operated at a unit resolution for both Q1 and Q3 with a dwell time of 90 ms in each transition.
The presence of each intact hemorphin and potential fragments were tracked by a combination of multiple reaction monitoring (MRM) and pseudo-MRM transitions.

[2] = background statement, no reference printed for it; cited from earlier work
[3] = system: FK-induced intracellular cAMP in Caco-2 cells; experiment: cAMP determination assay in forskolin-stimulated Caco-2 cells; assay type: cell-based, human; conditions: 1 µM alone, 15 min
Method: For the cAMP determination assay and the gene expression study, the cell line used was the Caco-2 cell line purchased from Sigma-Aldrich (Steinheim, Germany). Cells were grown at 37°C, 5% CO2 atmosphere in Dulbecco’s modified Eagle’s Medium (DMEM, 4.5 g L^−1 glucose) supplemented with 10% FBS, 2 mM L-glutamine, 100 U mL^−1 penicillin, and 100 µg mL^−1 streptomycin (complete DMEM) until use. Caco-2 from passages 34–37 were used. For the transport studies, the cell lines used and the culture protocols conditions are described in detail in dedicated subsections below.
The effect of the five opioid peptides/hemorphins on the cAMP production was assessed in vitro in Caco-2 cells. Each hemorphin was applied on Caco-2 cells stimulated or not by FK, an activator of the cAMP pathway, in order to evaluate the ability of the peptides to decrease intracellular cAMP elevation induced by FK. […] At the end of the 15 min incubation, cells were immediately rinsed three times with PBS and plates were stored at −80°C until intracellular cAMP levels determination with the Mouse/Rat cAMP Parameter Assay Kit according to the manufacturer’s guidelines. cAMP levels were normalized by the total protein concentration determined by the Pierce BCA Protein Assay Kit for each sample and expressed as a percentage of the reference condition FK only.

[4] = system: mu- and kappa-transfected CHO-cells; set-up: method as in Fukuda et al. 45; conditions: ref Fukuda et al. 45; cited from earlier work
[5] = system: brain-like endothelial cells (BLEC) co-cultured with bovine brain pericytes (human BBB model); conditions: peptide applied apically at 100 µM; table footnote says end of 120 min test, Figure 4 says 30 min
Method: The brain-like endothelial cell model has previously been described in detail ([28]). All the sample donors had given their written informed consent, in compliance with French legislation and the 2013 version of the Declaration of Helsinki. The sample collection was approved by the local investigational review board (Bethune Maternity Hospital Béthune, France). Briefly, this human model consists in isolating CD34+ cells from umbilical cord blood. These cells are then cultured in endothelial cell medium supplemented with 20% FCS for 15–20 days. After this period, cells are differentiated into endothelial cells. After a trypsinization step, they are seeded on matrigel coated-transwell inserts in 12-well culture plates, and subsequently cultured with brain pericytes, isolated from bovine brain capillaries. After 6 days of co-culture, human endothelial cells acquire the BBB phenotype, and are then named BLECs.
(§1) The day of the transport test, the same procedure as for the intestinal passage assay was applied except that the transwell inserts were transferred to a new 12-well culture plate at each time point, 30, 60, 90, and 120 min. All incubations were performed at 37°C, 5% CO2 atmosphere with slight agitations. The transport medium consisted in Ringer-Hepes solution (150 mM NaCl, 5.2 mM KCl, 2.2 mM CaCl2, 0.2 mM MgCl2⋅6H2O, 6 mM NaHCO3, 5 mM HEPES, pH 7.4). […] A test was performed without cells to insure that the filter membrane was not preventing the passage of the peptides.
The injection volume was 2 µL.

[6] = system: BLEC blood-brain barrier model; conditions: hemorphin 100 µM apical; Dunnett's post hoc
Method: as §1

[7] = physchem; conditions: pH 7.4
[8] = system: Caco-2/TC7 cell barrier; conditions: LY 100 µM with hemorphin 5 mM apical
Method: The day of the trans-intestinal transport test, growth media were removed, and cells were first rinsed with the transport medium, HBSS-Hepes buffer supplemented with CaCl2 (2.5 mM final) and MgCl2 (0.5 mM final) in the apical (1 mL) and basolateral chambers (2.5 mL), then pre-incubated for 30 min with the transport medium. All incubations were performed at 37°C, 10% CO2 atmosphere. To control the integrity of the Caco-2/TC7 cell barrier, the paracellular transport marker lucifer yellow (LY, 100 µM final) was applied apically into each well and its transport into the basolateral chamber was monitored by spectrofluorescence. Each hemorphin was diluted for a final concentration of 5 mM in transport medium-LY and applied to the apical chamber at t0. […] The rate of LY transport was determined by fluorescence readings (ex 485/em 530 nm) at each time point on the spectrofluorometer Safas Xenius XC (Safas Monaco, Monaco, France) and calculating the apparent permeability coefficient (Papp) as follows: (ΔQ/Δt) × (Vb/(A × C0)), where ΔQ is the change in LY concentration in the basal chamber (μM); Δt is the transport duration (s); Vb is the volume in the basal chamber (mL); A is the surface area of the insert/transwell membrane (cm^2); and C0 is the initial concentration of LY applied to the apical chamber (μM).

[9] = system: blood-brain barrier; conditions: 125I-H7; rats; cited from earlier work
[10] = system: caco-2 cell monolayer; set-up: method as in PMID 18468445; conditions: cited from earlier work

Row | Compound | Intact peptide or fragments present in the basal compartment, BBB [5] | Passage of the intact peptide across the Caco-2 monolayer [1] | Time of first appearance of the intact peptide in the basal compartment ([1]; Caco-2 model) [min] | Intact peptide or fragments present in the apical compartment, intestinal barrier [1] | Intact peptide or fragments present in the basal compartment, intestinal barrier [1] | other results
1 | C[C@@H](O)[C@H](NC(=O)[C@H](Cc1c[nH]c2ccccc12)NC(=O)[C@@H]1CCCN1C(=O)[C@@H](N)Cc1ccc(O)cc1)C(=O)O [H4, YPWT] (H-YPWT-OH) |  |  |  |  |  | Time of first identification of the fragment in basal samples ([1]; fragment released from hemorphins applied at 5 mM, Caco-2 model): 5 min; Stability in plasma [2]: very stable in plasma
2 | C=CCN1CC[C@]23c4c5ccc(O)c4O[C@H]2C(=O)CC[C@@]3(O)[C@H]1C5 [naloxone] |  |  |  |  |  | Intracellular cAMP, % of FK levels [3]: 68.42 ± 6.87%; Activity at opioid receptors in transfected CHO-cells [4]: partial agonist activity
3 | LLVVYPWT [LLVV-H4, LLVV-YPWT] | H4, VV-H4, LVV-H4, LLVV-H4 | not detected |  |  |  | Papp(LY) compared to control, BBB model [6]: 133.2 ± 16.44%; solubility [7]: > 50 µM; Papp(LY) compared to control, intestinal barrier model [8]: decreased compared to control (non-significant)
4 | LVVYPWT [LVV-H4, LVV-YPWT] | H4, VV-H4, LVV-H4 | clearly able to cross intact the cell monolayer | 60 | LVV-H4, VV-H4, H4 | H4, VV-H4, LVV-H4 | 
5 | VVYPWT [VV-H4, VV-YPWT] | H4, VV-H4 | clearly able to cross intact the cell monolayer | 60 | VV-H4, H4 | H4, VV-H4 | Papp(LY) compared to control, BBB model [6]: 142.2 ± 26.71%
6 | VVYPWTQRF [VV-H7, VV-YPWTQRF] | H4, VV-H7, VV-H4, H7, H3, H5 | found in traces |  | VV-H7, VV-H4, H7, H6 | H4, VV-H7, H7, H3 | Papp(LY) compared to control, intestinal barrier model [8]: decreased compared to control (non-significant)
7 | YPWTQRF [H7, YPWTQRF] |  | clearly able to cross intact the cell monolayer | 5 |  |  | Time to BBB passage after intra-femoral artery injection [9]: ≤ 15 min
8 | endomorphine-1 |  |  |  |  |  | Permeability through a caco-2 cell monolayer [10]: low permeability
